Data as given in patent US20250353855A1, “HETEROCYCLIC AND HETEROARYL COMPOUNDS FOR TREATING HUNTINGTON'S DISEASE” (PTC THERAPEUTICS, INC., priority 2022, published 2025).

Test system: Endogenous Huntingtin Protein
Assay: Endogenous Huntingtin Protein Assay (ELISA-based MSD electrochemiluminescence)
Assay type: cell-based
Conditions: MSD plates coated with MW1 (expanded polyglutamine) or MAB2166 capture antibody; lysates; read-out: IC50
Procedure: Compounds of Formula (T) were tested using the Meso Scale Discovery (MSD) Assay provided in International Application No. PCT/US2016/066042, filed on Dec. 11, 2016 and claiming priority to U.S. Provisional Application 62/265,652 filed on Dec. 10, 2015, the entire contents of which are incorporated herein by reference.
The Endogenous Huntingtin Protein assay used in Example 1 was developed using the ELISA-based MSD electrochemiluminescence assay platform.
Meso Scale Discovery (MSD) 96-well or 384-well plates were coated overnight at 4° C. with MW1 (expanded polyglutamine) or MAB2166 monoclonal antibody (for capture) at a concentration of 1 μg/mL in PBS (30 μL per well). Plates were then washed three times with 300 μL wash buffer (0.05% Tween-20 in PBS) and blocked (100 μL blocking buffer; 5% BSA in PBS) for 4-5 hours at room temperature with rotational shaking and then washed three times with wash buffer.
Samples (25 μL) were transferred to the antibody-coated MSD plate and incubated overnight at 4° C. After removal of the lysates, the plate was washed three times with wash buffer, and 25 μL of #5656S (Cell signaling; rabbit monoclonal) secondary antibody (diluted to 0.25 μg/mL in 0.05% Tween-20 in blocking buffer) was added to each well and incubated with shaking for 1 Hour at room temperature. Following incubation with the secondary antibody, the wells were rinsed with wash buffer after which 25 μL of goat anti-rabbit SULFO TAG secondary detection antibody (required aspect of the MSD system) (diluted to 0.25 μg/mL in 0.05% Tween-20 in blocking buffer) was added to each well and incubated with shaking for 1 hour at room temperature. After rinsing three times with wash buffer, 150 μL of read buffer T with surfactant (MSD) were added to each empty well, and the plate was imaged on a SI 6000 imager (MSD) according to manufacturers' instructions provided for 96- or 384-well plates.

IC50 | SMILES
< 100 nM | CC1(C)C[C@H](n2ccc3cc(-c4cc5oc(=O)[nH]c5cc4O)nnc32)[C@H](F)C(C)(C)N1 [Cpd 36, 6-{7-[(3S,4S)-3-fluoro-2,2,6,6-tetramethylpiperidin-4-yl]-7H-pyrrolo[2,3-c]pyridazin-3-yl}-5-hydroxy-1,3-benzoxazol-2(3H)-one]
< 100 nM | Cn1nc2cc(O)c(-c3cc4ccn([C@H]5CC(C)(C)NC(C)(C)[C@H]5F)c4nn3)cc2n1 [Cpd 37, 6-{7-[(3S,4S)-3-fluoro-2,2,6,6-tetramethylpiperidin-4-yl]-7H-pyrrolo[2,3-c]pyridazin-3-yl}-2-methyl-2H-benzotriazol-5-ol]
< 100 nM | Cn1cc2cc(O)c(-c3cc4ccn([C@H]5CC(C)(C)NC(C)(C)[C@H]5F)c4nn3)cc2n1 [Cpd 38, 6-{7-[(3S,4S)-3-fluoro-2,2,6,6-tetramethylpiperidin-4-yl]-7H-pyrrolo[2,3-c]pyridazin-3-yl}-2-methyl-2H-indazol-5-ol]
< 100 nM | Cc1ncc2cc(O)c(-c3cc4ccn([C@H]5CC(C)(C)NC(C)(C)[C@H]5F)c4nn3)cc2n1 [Cpd 39, 7-{7-[(3S,4S)-3-fluoro-2,2,6,6-tetramethylpiperidin-4-yl]-7H-pyrrolo[2,3-c]pyridazin-3-yl}-2-methylquinazolin-6-ol]
< 100 nM | CC1(C)C[C@H](n2ccc3cc(-c4cc5ncc(F)cc5cc4O)nnc32)[C@H](F)C(C)(C)N1 [Cpd 40, 3-fluoro-7-{7-[(3S,4S)-3-fluoro-2,2,6,6-tetramethylpiperidin-4-yl]-7H-pyrrolo[2,3-c]pyridazin-3-yl}quinolin-6-ol]
< 100 nM | Cn1nnc2cc(-c3cc4ccn([C@H]5CC(C)(C)NC(C)(C)[C@H]5F)c4nn3)c(O)cc21 [Cpd 41, 5-{7-[(3S,4S)-3-fluoro-2,2,6,6-tetramethylpiperidin-4-yl]-7H-pyrrolo[2,3-c]pyridazin-3-yl}-1-methyl-1H-benzotriazol-6-ol]
< 100 nM | Cn1nnc2cc(O)c(-c3cc4ccn([C@H]5CC(C)(C)NC(C)(C)[C@H]5F)c4nn3)cc21 [Cpd 42, 6-{7-[(3S,4S)-3-fluoro-2,2,6,6-tetramethylpiperidin-4-yl]-7H-pyrrolo[2,3-c]pyridazin-3-yl}-1-methyl-1H-benzotriazol-5-ol]
< 100 nM | Cn1nnc2cc(-c3cc4c(nn3)N([C@H]3CC(C)(C)NC(C)(C)[C@H]3F)CC4)c(O)cc21 [Cpd 50, 5-{7-[(3S,4S)-3-fluoro-2,2,6,6-tetramethylpiperidin-4-yl]-6,7-dihydro-5H-pyrrolo[2,3-c]pyridazin-3-yl}-1-methyl-1H-benzotriazol-6-ol]

The next lines start with the compound.

SMILES | IC50
Cc1nc2cc(O)c(-c3cc4c(nn3)N([C@H]3CCNC5(CC5)C3)CC4)cc2o1 [Cpd 43, 6-{7-[(7S)-4-azaspiro[2.5]octan-7-yl]-6,7-dihydro-5H-pyrrolo[2,3-c]pyridazin-3-yl}-2-methyl-1,3-benzoxazol-5-ol] | < 100 nM
Cc1nc2cc(O)c(-c3cc4c(nn3)N([C@H]3CC(C)(C)NC(C)(C)[C@H]3F)CC4)cc2o1 [Cpd 44, 6-{7-[(3S,4S)-3-fluoro-2,2,6,6-tetramethylpiperidin-4-yl]-6,7-dihydro-5H-pyrrolo[2,3-c]pyridazin-3-yl}-2-methyl-1,3-benzoxazol-5-ol] | < 100 nM
CC1(C)C[C@H](N2CCc3cc(-c4cc5nccnc5cc4O)nnc32)[C@H](F)C(C)(C)N1 [Cpd 45, 7-{7-[(3S,4S)-3-fluoro-2,2,6,6-tetramethylpiperidin-4-yl]-6,7-dihydro-5H-pyrrolo[2,3-c]pyridazin-3-yl}quinoxalin-6-ol] | < 100 nM
Cc1nc2cc(-c3cc4c(nn3)N([C@H]3CC(C)(C)NC(C)(C)[C@H]3F)CC4)c(O)cc2[nH]1 [Cpd 46, 5-{7-[(3S,4S)-3-fluoro-2,2,6,6-tetramethylpiperidin-4-yl]-6,7-dihydro-5H-pyrrolo[2,3-c]pyridazin-3-yl}-2-methyl-1H-benzimidazol-6-ol] | < 100 nM
CC1(C)C[C@H](N2CCc3cc(-c4cc5nn[nH]c5cc4O)nnc32)[C@H](F)C(C)(C)N1 [Cpd 47, 5-{7-[(3S,4S)-3-fluoro-2,2,6,6-tetramethylpiperidin-4-yl]-6,7-dihydro-5H-pyrrolo[2,3-c]pyridazin-3-yl}-1H-benzotriazol-6-ol] | < 100 nM
Cc1nc2cc(-c3cc4c(nn3)N([C@H]3CC(C)(C)NC(C)(C)[C@H]3F)CC4)c(O)cc2n1C [Cpd 48, 5-{7-[(3S,4S)-3-fluoro-2,2,6,6-tetramethylpiperidin-4-yl]-6,7-dihydro-5H-pyrrolo[2,3-c]pyridazin-3-yl}-1,2-dimethyl-1H-benzimidazol-6-ol] | < 100 nM
Oc1cc2nccnc2cc1-c1cc2c(nn1)N([C@H]1CCNC3(CC3)C1)CC2 [Cpd 49, 7-{7-[(7S)-4-azaspiro[2.5]octan-7-yl]-6,7-dihydro-5H-pyrrolo[2,3-c]pyridazin-3-yl}quinoxalin-6-ol] | < 100 nM
Cc1nc2cc(O)c(-c3cc4c(nn3)N([C@H]3CC(C)(C)NC(C)(C)[C@H]3F)CC4)cc2nc1C [Cpd 51, 7-{7-[(3S,4S)-3-fluoro-2,2,6,6-tetramethylpiperidin-4-yl]-6,7-dihydro-5H-pyrrolo[2,3-c]pyridazin-3-yl}-2,3-dimethylquinoxalin-6-ol] | < 100 nM
Cc1nc2cc(O)c(-c3cc4c(nn3)N([C@H]3CC(C)(C)NC(C)(C)[C@H]3F)CC4)cc2s1 [Cpd 52, 6-{7-[(3S,4S)-3-fluoro-2,2,6,6-tetramethylpiperidin-4-yl]-6,7-dihydro-5H-pyrrolo[2,3-c]pyridazin-3-yl}-2-methyl-1,3-benzothiazol-5-ol] | < 100 nM
CC1(C)C[C@H](N2CCc3cc(-c4cc5cccnc5cc4O)nnc32)[C@H](F)C(C)(C)N1 [Cpd 53, 6-{7-[(3S,4S)-3-fluoro-2,2,6,6-tetramethylpiperidin-4-yl]-6,7-dihydro-5H-pyrrolo[2,3-c]pyridazin-3-yl}quinolin-7-ol] | < 100 nM
CC1(C)C[C@H](N2CCc3cc(-c4cc5cnccc5cc4O)nnc32)[C@H](F)C(C)(C)N1 [Cpd 54, 7-{7-[(3S,4S)-3-fluoro-2,2,6,6-tetramethylpiperidin-4-yl]-6,7-dihydro-5H-pyrrolo[2,3-c]pyridazin-3-yl}isoquinolin-6-ol] | < 100 nM
Cc1cnc2cc(O)c(-c3cc4c(nn3)N([C@H]3CC(C)(C)NC(C)(C)[C@H]3F)CC4)cc2n1 [Cpd 55, 7-{7-[(3S,4S)-3-fluoro-2,2,6,6-tetramethylpiperidin-4-yl]-6,7-dihydro-5H-pyrrolo[2,3-c]pyridazin-3-yl}-2-methylquinoxalin-6-ol] | < 100 nM
Cc1cnc2cc(-c3cc4c(nn3)N([C@H]3CC(C)(C)NC(C)(C)[C@H]3F)CC4)c(O)cc2n1 [Cpd 56, 7-{7-[(3S,4S)-3-fluoro-2,2,6,6-tetramethylpiperidin-4-yl]-6,7-dihydro-5H-pyrrolo[2,3-c]pyridazin-3-yl}-3-methylquinoxalin-6-ol] | < 100 nM
O=C1CCc2cc(-c3cc4c(nn3)N([C@H]3CCNC5(CC5)C3)CC4)c(O)cc21 [Cpd 57, 5-{7-[(7S)-4-azaspiro[2.5]octan-7-yl]-6,7-dihydro-5H-pyrrolo[2,3-c]pyridazin-3-yl}-6-hydroxy-2,3-dihydro-1H-inden-1-one] | 100 to 500 nM
O=c1ccc2cc(-c3cc4c(nn3)N([C@H]3CCNC5(CC5)C3)CC4)c(O)cc2o1 [Cpd 59, 6-{7-[(7S)-4-azaspiro[2.5]octan-7-yl]-6,7-dihydro-5H-pyrrolo[2,3-c]pyridazin-3-yl}-7-hydroxy-2H-1-benzopyran-2-one] | < 100 nM
